Data from the supplement of paper PMC6045584.
± gives the standard deviation of the averaged measurements.

Assays:
MK2206 = compound: NC1(c2ccc(-c3nc4ccn5c(=O)[nH]nc5c4cc3-c3ccccc3)cc2)CCC1 [MK2206]; experiment: surviving fraction relative to DMSO-only wells; higher = less growth inhibition; conditions: exposure time: 5 days
How it was run: (§1)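 Surviving fraction is CellTiter-Glo luminescence divided by the median of wells given DMSO only. For this, log-phase tumour cell lines went into 384-well plates at 250–500 cells per well and, 24 hours later, into five days of continuous inhibitor exposure at 0.5, 1, 5, 10, 50, 100, 500 and 1000 nM. Lines were screened three times and retained only if replicate Pearson r >0.7 and median Z' >0.3.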

ETOPOSIDE = compound: COc1cc([C@@H]2c3cc4c(cc3[C@@H](O[C@@H]3O[C@@H]5CO[C@@H](C)O[C@H]5[C@H](O)[C@H]3O)[C@H]3COC(=O)[C@H]23)OCO4)cc(OC)c1O [ETOPOSIDE]; experiment: as above; conditions: exposure time: 5 days
How it was run: as §1

Row | Test System | surviving fraction (MK2206; 0.5 nM) | surviving fraction (MK2206; 1 nM) | surviving fraction (MK2206; 5 nM) | surviving fraction (MK2206; 10 nM) | surviving fraction (MK2206; 50 nM) | surviving fraction (MK2206; 100 nM) | surviving fraction (MK2206; 500 nM) | surviving fraction (MK2206; 1000 nM) | surviving fraction (ETOPOSIDE; 0.5 nM) | surviving fraction (ETOPOSIDE; 1 nM) | surviving fraction (ETOPOSIDE; 5 nM) | surviving fraction (ETOPOSIDE; 10 nM) | surviving fraction (ETOPOSIDE; 50 nM) | surviving fraction (ETOPOSIDE; 100 nM) | surviving fraction (ETOPOSIDE; 500 nM) | surviving fraction (ETOPOSIDE; 1000 nM)
1 | HCC1395 BREAST | 1.08 ± 0.18 | 0.985 ± 0.056 | 1.09 ± 0.16 | 1.04 ± 0.19 | 0.934 ± 0.057 | 1.1 ± 0.13 | 0.89 ± 0.082 | 0.817 ± 0.15 | 0.983 ± 0.081 | 0.994 ± 0.1 | 1.02 ± 0.12 | 1 ± 0.12 | 1.06 ± 0.14 | 1.04 ± 0.056 | 0.937 ± 0.12 | 0.926 ± 0.13
2 | HCC1806 BREAST | 1.02 ± 0.074 | 1.1 ± 0.021 | 1.15 ± 0.19 | 1.14 ± 0.05 | 1.05 ± 0.072 | 1.02 ± 0.099 | 0.828 ± 0.013 | 0.682 ± 0.015 | 0.883 ± 0.089 | 1.04 ± 0.14 | 1.05 ± 0.082 | 1.03 ± 0.075 | 1.14 ± 0.029 | 0.807 ± 0.067 | 0.182 ± 0.021 | 0.141 ± 0.0035
3 | HCC1954 BREAST | 1.06 ± 0.16 | 0.988 ± 0.088 | 1.14 ± 0.14 | 1.18 ± 0.13 | 0.896 ± 0.035 | 0.9938 ± 0.0039 | 0.482 ± 0.082 | 0.304 ± 0.0067 | 0.889 ± 0.22 | 0.872 ± 0.095 | 1.1 ± 0.064 | 1.05 ± 0.074 | 0.953 ± 0.054 | 0.654 ± 0.014 | 0.512 ± 0.13 | 0.34 ± 0.0014
4 | HCT15 LARGE INTESTINE | 1.04 ± 0.042 | 1.07 ± 0.048 | 1.08 ± 0.052 | 1.07 ± 0.064 | 1.02 ± 0.063 | 1.07 ± 0.025 | 0.942 ± 0.073 | 0.928 ± 0.026 | 1.01 ± 0.037 | 0.981 ± 0.03 | 1.01 ± 0.041 | 1.04 ± 0.046 | 1.007 ± 0.0047 | 1.05 ± 0.033 | 0.704 ± 0.095 | 0.328 ± 0.037
5 | HELA CERVIX | 1.03 ± 0.037 | 1.15 ± 0.043 | 1.12 ± 0.073 | 1.09 ± 0.12 | 1.02 ± 0.057 | 1.09 ± 0.035 | 1.08 ± 0.031 | 1.19 ± 0.051 | 1.1 ± 0.033 | 1.1 ± 0.023 | 1.04 ± 0.031 | 1.04 ± 0.015 | 1.14 ± 0.063 | 1.18 ± 0.059 | 0.301 ± 0.044 | 0.182 ± 0.0037
6 | HMLE3 BREAST | 1.06 ± 0.11 | 1.13 ± 0.047 | 1.08 ± 0.01 | 1.09 ± 0.044 | 0.895 ± 0.14 | 0.843 ± 0.098 | 0.717 ± 0.052 | 0.617 ± 0.018 | 1.02 ± 0.052 | 0.974 ± 0.06 | 1.01 ± 0.027 | 0.9737 ± 0.0075 | 0.826 ± 0.018 | 0.589 ± 0.06 | 0.279 ± 0.045 | 0.27 ± 0.017
7 | HMT3552 BREAST | 1.05 ± 0.029 | 1.05 ± 0.02 | 1.1 ± 0.03 | 1.02 ± 0.033 | 1.03 ± 0.041 | 0.909 ± 0.076 | 0.692 ± 0.02 | 0.62 ± 0.014 | 1.05 | 1.05 | 1.04 | 0.998 | 1.14 | 1.03 | 0.347 | 0.22
8 | HOS BONE | 1.02 ± 0.013 | 1.03 ± 0.026 | 1.03 ± 0.0087 | 1.05 ± 0.038 | 0.978 ± 0.021 | 0.948 ± 0.021 | 0.822 ± 0.038 | 0.79 ± 0.012 | 1.01 ± 0.011 | 1.02 ± 0.033 | 1.02 ± 0.018 | 1.019 ± 0.0095 | 0.978 ± 0.01 | 0.707 ± 0.033 | 0.0687 ± 0.0011 | 0.067 ± 0.0056
9 | HOSMNG BONE | 0.865 ± 0.1 | 0.936 ± 0.1 | 0.907 ± 0.082 | 0.846 ± 0.1 | 0.773 ± 0.076 | 0.802 ± 0.15 | 0.752 ± 0.064 | 0.678 ± 0.027 | 0.958 ± 0.1 | 0.984 ± 0.056 | 0.976 ± 0.024 | 1.01 ± 0.023 | 1.02 ± 0.021 | 1.04 ± 0.018 | 0.956 ± 0.079 | 0.78 ± 0.021
10 | HS578T BREAST | 1.06 ± 0.17 | 1 ± 0.084 | 1.02 ± 0.087 | 1.04 ± 0.15 | 1.03 ± 0.19 | 0.829 ± 0.08 | 0.652 ± 0.064 | 0.618 ± 0.028 | 0.878 ± 0.18 | 0.849 ± 0.12 | 0.831 ± 0.2 | 0.789 ± 0.079 | 0.95 ± 0.11 | 0.751 ± 0.064 | 0.59 ± 0.064 | 0.372 ± 0.029
11 | HSSYII SYNOVIAL | 0.937 ± 0.019 | 0.9935 ± 0.0096 | 0.93 ± 0.042 | 0.984 ± 0.043 | 0.903 ± 0.059 | 0.921 ± 0.037 | 0.773 ± 0.024 | 0.738 ± 0.032 | 0.995 ± 0.045 | 0.972 ± 0.068 | 0.968 ± 0.049 | 0.971 ± 0.018 | 0.7943 ± 0.0045 | 0.59 ± 0.026 | 0.116 ± 0.0062 | 0.0892 ± 0.0041
12 | HT1080 SOFT TISSUE | 1.04 ± 0.028 | 1.02 ± 0.018 | 1.04 ± 0.018 | 1.06 ± 0.043 | 1.05 ± 0.026 | 1.05 ± 0.012 | 0.997 ± 0.049 | 0.951 ± 0.044 | 1.02 ± 0.028 | 0.995 ± 0.026 | 0.951 ± 0.02 | 0.94 ± 0.015 | 0.616 ± 0.046 | 0.467 ± 0.0051 | 0.217 ± 0.021 | 0.222 ± 0.0056
13 | HU09 BONE | 0.85 ± 0.065 | 0.971 ± 0.0053 | 0.991 ± 0.18 | 1.06 ± 0.094 | 0.849 ± 0.039 | 0.63 ± 0.05 | 0.363 ± 0.034 | 0.272 ± 0.016 | 0.957 ± 0.075 | 0.977 ± 0.09 | 1.12 ± 0.099 | 1 ± 0.023 | 0.972 ± 0.12 | 0.803 ± 0.087 | 0.146 ± 0.0087 | 0.0523 ± 0.0064
14 | JIMT1 BREAST | 0.965 ± 0.025 | 0.996 ± 0.017 | 0.999 ± 0.049 | 1.02 ± 0.01 | 0.929 ± 0.012 | 0.917 ± 0.027 | 0.68 ± 0.023 | 0.633 ± 0.034 | 0.988 ± 0.02 | 1.01 ± 0.026 | 1.03 ± 0.032 | 1.03 ± 0.015 | 1.06 ± 0.022 | 1.07 ± 0.026 | 0.893 ± 0.028 | 0.694 ± 0.028
15 | JURKAT HAEMATOPOIETIC AND LYMPHOID TISSUE | 1 ± 0.013 | 1.03 ± 0.03 | 0.92 ± 0.016 | 0.987 ± 0.022 | 0.871 ± 0.0053 | 0.787 ± 0.025 | 0.471 ± 0.01 | 0.274 ± 0.0046 | 1.084 ± 0.0084 | 1.1 ± 0.023 | 1.052 ± 0.0055 | 1.011 ± 0.0045 | 0.633 ± 0.043 | 0.261 ± 0.01 | 0.064 ± 0.005 | 0.0413 ± 0.00058
16 | KPD BONE | 1 ± 0.043 | 0.979 ± 0.031 | 0.944 ± 0.075 | 0.931 ± 0.047 | 0.634 ± 0.013 | 0.467 ± 0.024 | 0.252 ± 0.0083 | 0.195 ± 0.0091 | 0.955 ± 0.016 | 0.894 ± 0.047 | 1.02 ± 0.026 | 1.02 ± 0.1 | 0.944 ± 0.023 | 0.811 ± 0.047 | 0.393 ± 0.0087 | 0.292 ± 0.014
17 | LM7 BONE | 0.991 ± 0.019 | 0.998 ± 0.043 | 1.04 ± 0.046 | 1.03 ± 0.055 | 0.84 ± 0.069 | 0.818 ± 0.056 | 0.628 ± 0.041 | 0.579 ± 0.016 | 0.9 ± 0.14 | 0.941 ± 0.072 | 1.01 ± 0.068 | 1.01 ± 0.13 | 0.994 ± 0.12 | 0.953 ± 0.075 | 0.677 ± 0.034 | 0.449 ± 0.045
18 | MCF7 BREAST | 0.947 ± 0.046 | 0.942 ± 0.052 | 0.933 ± 0.044 | 0.916 ± 0.034 | 0.882 ± 0.065 | 0.841 ± 0.078 | 0.659 ± 0.033 | 0.62 ± 0.042 | 0.9 ± 0.049 | 0.88 ± 0.045 | 0.867 ± 0.079 | 0.9 ± 0.037 | 0.951 ± 0.07 | 0.935 ± 0.014 | 0.702 ± 0.051 | 0.644 ± 0.041
19 | MDAMB134 BREAST | 1 ± 0.079 | 0.89 ± 0.29 | 0.921 ± 0.0014 | 0.891 ± 0.14 | 0.703 ± 0.016 | 0.783 ± 0.072 | 0.629 ± 0.13 | 0.673 ± 0.18 | 1.08 ± 0.13 | 1.187 ± 0.0057 | 0.994 ± 0.13 | 0.992 ± 0.099 | 1.03 ± 0.19 | 1.12 ± 0.17 | 1.11 ± 0.065 | 1.02 ± 0.055
20 | MDAMB157 BREAST | 0.952 ± 0.052 | 0.999 ± 0.02 | 1.06 ± 0.026 | 0.963 ± 0.081 | 0.96 ± 0.053 | 0.949 ± 0.019 | 0.947 ± 0.048 | 0.904 ± 0.1 | 0.927 ± 0.12 | 0.938 ± 0.044 | 1.07 ± 0.044 | 0.99 ± 0.055 | 0.895 ± 0.038 | 0.874 ± 0.1 | 0.201 ± 0.046 | 0.221 ± 0.053
21 | MDAMB231 BREAST | 0.954 ± 0.019 | 1.006 ± 0.0089 | 0.976 ± 0.021 | 0.972 ± 0.024 | 0.903 ± 0.027 | 0.934 ± 0.033 | 0.869 ± 0.027 | 0.856 ± 0.011 | 0.987 ± 0.022 | 1.03 ± 0.056 | 1.02 ± 0.018 | 0.995 ± 0.018 | 1.04 ± 0.029 | 1.03 ± 0.036 | 0.633 ± 0.017 | 0.454 ± 0.043
